“And” between values parts separate entries of the source, which are not always exact repeats. Identical values can stand only once.
Conditions: Gas

O=C(C(F)(F)C(F)(F)F)C(F)(C(F)(F)F)C(F)(F)F [dodecafluoro-2-methylpentan-3-one]
Conditions	thermal conductivity
499.7 K, 3616 kPa, transient hot wire	0.03337 W/m/K
499.7 K, 4324 kPa, transient hot wire	0.03528 W/m/K
499.7 K, 5590 kPa, transient hot wire	0.03721 W/m/K
499.7 K, 35697 kPa, transient hot wire	0.05683 W/m/K
499.7 K, 50253 kPa, transient hot wire	0.06228 W/m/K
499.7 K, 50292 kPa, transient hot wire	0.06274 W/m/K
499.71 K, 3616 kPa, transient hot wire	0.03339 W/m/K
499.71 K, 25604 kPa, transient hot wire	0.05236 W/m/K
499.72 K, 3288 kPa, transient hot wire	0.03208 W/m/K
499.72 K, 4324 kPa, transient hot wire	0.03516 W/m/K
499.72 K, 18413 kPa, transient hot wire	0.04809 W/m/K
499.73 K, 643 kPa, hot wire	0.02734 W/m/K and 0.02744 W/m/K
499.73 K, 4855 kPa, transient hot wire	0.03606 W/m/K and 0.03623 W/m/K
499.73 K, 18416 kPa, transient hot wire	0.04833 W/m/K
499.73 K, 35665 kPa, transient hot wire	0.05687 W/m/K
499.74 K, 3288 kPa, transient hot wire	0.03222 W/m/K
499.74 K, 3937 kPa, transient hot wire	0.03429 W/m/K
499.74 K, 50254 kPa, transient hot wire	0.06235 W/m/K
499.75 K, 418 kPa, hot wire	0.02717 W/m/K
499.75 K, 2128 kPa, transient hot wire	0.02829 W/m/K
499.75 K, 35673 kPa, transient hot wire	0.05679 W/m/K
499.75 K, 35689 kPa, transient hot wire	0.05686 W/m/K
499.75 K, 50278 kPa, transient hot wire	0.06281 W/m/K
499.76 K, 417 kPa, hot wire	0.02687 W/m/K
499.76 K, 1595 kPa, transient hot wire	0.02727 W/m/K
499.76 K, 5594 kPa, transient hot wire	0.03739 W/m/K
499.76 K, 25601 kPa, transient hot wire	0.05218 W/m/K
499.76 K, 25602 kPa, transient hot wire	0.05226 W/m/K
499.76 K, 50255 kPa, transient hot wire	0.06232 W/m/K
499.77 K, 1595 kPa, transient hot wire	0.0273 W/m/K
499.77 K, 4324 kPa, transient hot wire	0.03524 W/m/K
499.78 K, 5592 kPa, transient hot wire	0.03734 W/m/K
499.79 K, 60 kPa, hot wire	0.02624 W/m/K
499.79 K, 218 kPa, hot wire	0.02627 W/m/K
499.79 K, 2953 kPa, transient hot wire	0.03092 W/m/K
499.79 K, 3618 kPa, transient hot wire	0.03355 W/m/K
499.79 K, 4324 kPa, transient hot wire	0.03534 W/m/K
499.79 K, 35664 kPa, transient hot wire	0.05692 W/m/K
499.79 K, 50251 kPa, transient hot wire	0.06211 W/m/K
499.8 K, 60 kPa, hot wire	0.02618 W/m/K
499.8 K, 217 kPa, hot wire	0.02613 W/m/K
499.8 K, 869 kPa, transient hot wire	0.02693 W/m/K and 0.02695 W/m/K
499.8 K, 2952 kPa, transient hot wire	0.03103 W/m/K
499.8 K, 3936 kPa, transient hot wire	0.03437 W/m/K
499.8 K, 4855 kPa, transient hot wire	0.03629 W/m/K
499.81 K, 2569 kPa, transient hot wire	0.0294 W/m/K
499.81 K, 3287 kPa, transient hot wire	0.0325 W/m/K and 0.03233 W/m/K
499.81 K, 3936 kPa, transient hot wire	0.03445 W/m/K
499.81 K, 35680 kPa, transient hot wire	0.05678 W/m/K
499.81 K, 35689 kPa, transient hot wire	0.05675 W/m/K
499.81 K, 50253 kPa, transient hot wire	0.06239 W/m/K
499.82 K, 2568 kPa, transient hot wire	0.02959 W/m/K
499.82 K, 35681 kPa, transient hot wire	0.05686 W/m/K
499.83 K, 646 kPa, transient hot wire	0.02724 W/m/K
499.83 K, 647 kPa, transient hot wire	0.02739 W/m/K
499.83 K, 13400 kPa, transient hot wire	0.04508 W/m/K
499.84 K, 5595 kPa, transient hot wire	0.03734 W/m/K
499.84 K, 13403 kPa, transient hot wire	0.04494 W/m/K
499.84 K, 18418 kPa, transient hot wire	0.04825 W/m/K
499.85 K, 3618 kPa, transient hot wire	0.0337 W/m/K
499.85 K, 4324 kPa, transient hot wire	0.03554 W/m/K
499.85 K, 25604 kPa, transient hot wire	0.05216 W/m/K
499.85 K, 35654 kPa, transient hot wire	0.05672 W/m/K
499.86 K, 4325 kPa, transient hot wire	0.03565 W/m/K
499.87 K, 5595 kPa, transient hot wire	0.03732 W/m/K
499.87 K, 35670 kPa, transient hot wire	0.05702 W/m/K
499.88 K, 1594 kPa, transient hot wire	0.02746 W/m/K
499.88 K, 1595 kPa, transient hot wire	0.02725 W/m/K
499.88 K, 2128 kPa, transient hot wire	0.02824 W/m/K
499.88 K, 2952 kPa, transient hot wire	0.03099 W/m/K
499.88 K, 3619 kPa, transient hot wire	0.03371 W/m/K
499.88 K, 3936 kPa, transient hot wire	0.03462 W/m/K
499.89 K, 422 kPa, transient hot wire	0.02757 W/m/K
499.89 K, 2128 kPa, transient hot wire	0.02826 W/m/K
499.89 K, 2952 kPa, transient hot wire	0.03116 W/m/K
499.89 K, 3936 kPa, transient hot wire	0.03474 W/m/K
499.89 K, 35669 kPa, transient hot wire	0.05673 W/m/K
499.9 K, 421 kPa, transient hot wire	0.02748 W/m/K
499.91 K, 2567 kPa, transient hot wire	0.02946 W/m/K
499.91 K, 3287 kPa, transient hot wire	0.03278 W/m/K
499.91 K, 10172 kPa, transient hot wire	0.0425 W/m/K
499.91 K, 25600 kPa, transient hot wire	0.05221 W/m/K
499.92 K, 6555 kPa, transient hot wire	0.03863 W/m/K
499.92 K, 10173 kPa, transient hot wire	0.0424 W/m/K
499.92 K, 25604 kPa, transient hot wire	0.05225 W/m/K
499.93 K, 870 kPa, transient hot wire	0.02694 W/m/K
499.93 K, 6552 kPa, transient hot wire	0.0387 W/m/K
499.93 K, 13400 kPa, transient hot wire	0.04487 W/m/K
499.93 K, 18421 kPa, transient hot wire	0.04818 W/m/K
499.94 K, 869 kPa, transient hot wire	0.0272 W/m/K
499.94 K, 18421 kPa, transient hot wire	0.0482 W/m/K
499.95 K, 5597 kPa, transient hot wire	0.03741 W/m/K
499.96 K, 2952 kPa, transient hot wire	0.03132 W/m/K
499.96 K, 3620 kPa, transient hot wire	0.0341 W/m/K
499.97 K, 25600 kPa, transient hot wire	0.05221 W/m/K
499.97 K, 25604 kPa, transient hot wire	0.05228 W/m/K
499.98 K, 645 kPa, transient hot wire	0.02717 W/m/K
499.99 K, 10173 kPa, transient hot wire	0.04254 W/m/K
499.99 K, 13400 kPa, transient hot wire	0.04504 W/m/K
499.99 K, 13402 kPa, transient hot wire	0.04506 W/m/K
499.99 K, 18421 kPa, transient hot wire	0.04841 W/m/K
500 K, 646 kPa, transient hot wire	0.02728 W/m/K
500 K, 2952 kPa, transient hot wire	0.03119 W/m/K
500 K, 3286 kPa, transient hot wire	0.03306 W/m/K and 0.03284 W/m/K
500 K, 6554 kPa, transient hot wire	0.03863 W/m/K
500 K, 6555 kPa, transient hot wire	0.03872 W/m/K
500 K, 8108 kPa, transient hot wire	0.04046 W/m/K
500 K, 10172 kPa, transient hot wire	0.04249 W/m/K
500.01 K, 1594 kPa, transient hot wire	0.02714 W/m/K
500.01 K, 2129 kPa, transient hot wire	0.02838 W/m/K
500.02 K, 1594 kPa, transient hot wire	0.02737 W/m/K
500.02 K, 2129 kPa, transient hot wire	0.0285 W/m/K
500.02 K, 2565 kPa, transient hot wire	0.02947 W/m/K
500.02 K, 2566 kPa, transient hot wire	0.0295 W/m/K
500.02 K, 8108 kPa, transient hot wire	0.04041 W/m/K
500.02 K, 18425 kPa, transient hot wire	0.0483 W/m/K
500.05 K, 419 kPa, transient hot wire	0.02753 W/m/K
500.06 K, 419 kPa, transient hot wire	0.02752 W/m/K
500.07 K, 10171 kPa, transient hot wire	0.04243 W/m/K
500.08 K, 870 kPa, transient hot wire	0.02705 W/m/K and 0.02701 W/m/K
500.08 K, 6554 kPa, transient hot wire	0.03889 W/m/K and 0.03865 W/m/K
500.08 K, 8107 kPa, transient hot wire	0.04045 W/m/K
500.08 K, 18421 kPa, transient hot wire	0.04829 W/m/K
500.09 K, 2952 kPa, transient hot wire	0.03151 W/m/K
500.1 K, 2952 kPa, transient hot wire	0.03143 W/m/K
500.1 K, 8107 kPa, transient hot wire	0.04058 W/m/K
500.1 K, 13402 kPa, transient hot wire	0.04498 W/m/K
500.12 K, 644 kPa, transient hot wire	0.02715 W/m/K
500.13 K, 645 kPa, transient hot wire	0.02741 W/m/K
500.13 K, 1594 kPa, transient hot wire	0.02735 W/m/K
500.14 K, 2565 kPa, transient hot wire	0.0296 W/m/K
500.15 K, 1594 kPa, transient hot wire	0.02739 W/m/K
500.15 K, 10171 kPa, transient hot wire	0.04243 W/m/K
500.16 K, 419 kPa, transient hot wire	0.02764 W/m/K
500.16 K, 10174 kPa, transient hot wire	0.04246 W/m/K
500.16 K, 13402 kPa, transient hot wire	0.04495 W/m/K
500.17 K, 6553 kPa, transient hot wire	0.03885 W/m/K
500.17 K, 8107 kPa, transient hot wire	0.04052 W/m/K
500.17 K, 8287 kPa, transient hot wire	0.04057 W/m/K
500.17 K, 13401 kPa, transient hot wire	0.04512 W/m/K
500.18 K, 6551 kPa, transient hot wire	0.03865 W/m/K
500.18 K, 8108 kPa, transient hot wire	0.04052 W/m/K
500.18 K, 8283 kPa, transient hot wire	0.0406 W/m/K
500.2 K, 419 kPa, transient hot wire	0.02743 W/m/K
500.23 K, 871 kPa, transient hot wire	0.02696 W/m/K
500.24 K, 872 kPa, transient hot wire	0.02702 W/m/K
500.24 K, 2563 kPa, transient hot wire	0.02975 W/m/K and 0.02983 W/m/K
500.25 K, 6550 kPa, transient hot wire	0.0387 W/m/K
500.25 K, 10172 kPa, transient hot wire	0.04247 W/m/K
500.26 K, 6550 kPa, transient hot wire	0.0388 W/m/K
500.27 K, 8107 kPa, transient hot wire	0.04068 W/m/K and 0.04066 W/m/K
500.27 K, 8290 kPa, transient hot wire	0.04063 W/m/K
500.27 K, 8294 kPa, transient hot wire	0.04069 W/m/K
500.28 K, 643 kPa, transient hot wire	0.02732 W/m/K and 0.02714 W/m/K
500.33 K, 419 kPa, transient hot wire	0.02775 W/m/K
500.34 K, 418 kPa, transient hot wire	0.02786 W/m/K
500.35 K, 8106 kPa, transient hot wire	0.0405 W/m/K
500.36 K, 8300 kPa, transient hot wire	0.04074 W/m/K
500.37 K, 8107 kPa, transient hot wire	0.04059 W/m/K
500.4 K, 872 kPa, transient hot wire	0.02701 W/m/K
500.4 K, 874 kPa, transient hot wire	0.02698 W/m/K
500.43 K, 643 kPa, transient hot wire	0.02726 W/m/K
500.45 K, 643 kPa, transient hot wire	0.0272 W/m/K
500.46 K, 8304 kPa, transient hot wire	0.04072 W/m/K
500.46 K, 8307 kPa, transient hot wire	0.04066 W/m/K
500.48 K, 417 kPa, transient hot wire	0.02764 W/m/K
500.49 K, 417 kPa, transient hot wire	0.02771 W/m/K
500.58 K, 8309 kPa, transient hot wire	0.04075 W/m/K
